The values below are quoted from earlier work in US8962010B2, “Intravaginal drug delivery devices for the delivery of macromolecules and water-soluble drugs” (Warner Chilcott Company, LLC, priority 2007, dated 2015).

The conditions of this data set: pH 5.

On to `CCN(Cc1cccc(S(=O)(=O)[O-])c1)c1ccc(C(=C2C=CC(=[N+](CC)Cc3cccc(S(=O)(=O)[O-])c3)C=C2)c2ccccc2S(=O)(=O)[O-])cc1.[Na+].[Na+]` [Erioglaucine], for which the water solubility result is given as “more than 20 % w/w”.
